Measured values published in patent publication US20160361340A1, “TREATMENT OF CARDIAC DISEASES WITH MODULATORS OF THE HIPPO PATHWAY” (INSTITUT PASTEUR, priority 2014, published 2016).

Key:
Type in all cases: cell-based, rat
Details in all cases: primary cultures of cardiomyocytes
[1] = system: Amotl1; assay: RT-qPCR control of RNA interference efficiency, Amotl1
Procedure: (§1) cDNAs were reverse transcribed from RNAs extracted in TRIzol from cell cultures and isolated hearts using the Quanti-Tect kit (Qiagen) and Superscript II Reverse Transcriptase (Life Technologies) respectively. Quantitative PCR was carried out on a StepOne System (Life Technologies) using Fast Start SYBR Green Master (Roche). Quantification of gene expression was calculated as R=2^ΔCt(control-target), with Gapdh used as a control. Primers were designed using the NCBI Primer-BLAST software. Primer sequences are listed in Supplementary Table 1.
(§2) Primary cultures of newborn rat cardiomyocytes, performed as previously described^34, were transfected with siRNA at 10 pM using Lipofectamine RNAiMax with silencer-siRNA at 24 h and analysed at 72 h, or 96 h (FIG. 3c). Control (Ambion 4390843), Fat4 (siRNA-1: Ambion s172170, siRNA-2: […], siRNA-3 […]), Amotl1 (siRNA-1: […], siRNA-2: […], siRNA-3: […]), Yap1 (siRNA-1: Ambion s170200, siRNA-2: […], siRNA-3: […]) siRNA were used. Efficiency of the interference was controlled by RT-qPCR. In the figures, Fat4 siRNA is Fat4-siRNA-1, Yap1 siRNA is a pool of siRNA-1 to 3 and Amotl1 siRNA is a pool of siRNA-1 to 3.

[2] = system: Fat4; assay: RT-qPCR control of RNA interference efficiency, Fat4
Procedure: as §1, §2

[3] = system: Yap1; assay: RT-qPCR control of RNA interference efficiency, Yap1
Procedure: as §1, §2

## Amotl1 siRNA-2: siRNA against rat Amotl1, GAGUAUCUCAGAGGCCUAUTT (chemistry not given here)
[1]
  down-regulation of Amotl1 relative to Gapdh transcripts: Efficient down-regulation

## Amotl1 siRNA-3: siRNA against rat Amotl1, CAUCACAUGUCCCAGAAUATT (chemistry not given here)
[1]
  down-regulation of Amotl1 relative to Gapdh transcripts: Efficient down-regulation

## Amotl siRNA-1: siRNA against rat Amotl1, AUCUCUACCAUUUGUUGGGTT (chemistry not given here)
[1]
  down-regulation of Amotl1 relative to Gapdh transcripts: Efficient down-regulation

## Fat4 siRNA-2: siRNA against rat Fat4, CCUGUACCCUGAGUAUUGATT (chemistry not given here)
[2]
  down-regulation of Fat4 relative to Gapdh transcripts: Efficient down-regulation

## Fat4 siRNA-3: siRNA against rat Fat4, CCGUCCUUGUGUUUAACGUTT (chemistry not given here)
[2]
  down-regulation of Fat4 relative to Gapdh transcripts: Efficient down-regulation

## Yap1 siRNA-2: siRNA against rat Yap1, GUCAGAGAUACUUCUUAAATT (chemistry not given here)
[3]
  down-regulation of Yap1 relative to Gapdh transcripts: Efficient down-regulation

## Yap1 siRNA-3: siRNA against rat Yap1, GGAGAAGUUUACUACAUAATT (chemistry not given here)
[3]
  down-regulation of Yap1 relative to Gapdh transcripts: Efficient down-regulation
